Reference: US7091220B2, “Substituted indole Mannich bases” (Gruenenthal GmbH, priority 1999, dated 2006)

Molecular target: T1, 5-HT transporter (Rattus norvegicus, UniProt P31652)
T1 construct: these vesicular particles were isolated from the pons and medulla oblongata region of the male rat brain; from tissue; host or cells: rat brain synaptosomes (P2 fraction) from pons and medulla oblongata of male rats
Experiment: Inhibition of serotonin re-uptake (5-HT uptake inhibition) in rat brain synaptosomes
Format: biochemical
Conditions: rat brain synaptosomes (P2 fraction, pons and medulla oblongata); means from 2 parallel experiments; concentration not given
Method: The investigations of the inhibition of serotonin re-uptake (5-HT uptake inhibition) were carried out by the methods such as are described in M. Ch. Frink, H. -H. -Hennies, W. Englberger, M. Haurand and B. Wilffert, Arzneim.-Forsch./Drug. Res. 46 (III), 11, 1996, pages 1029–1036. They are introduced herewith as reference and thus form part of the disclosure.
To carry out these investigations, synaptosomes were freshly isolated from rat brain areas. In each case the so-called “P2” fraction was used, which was prepared according to the instructions in E. G. Gray and V. P. Whittaker, J. Anat. 76, pages 79–88, 1962. This literature is introduced herewith as reference and thus forms part of the disclosure. For determination of the 5-HT uptake, these vesicular particles were isolated from the pons and medulla oblongata region of the male rat brain.
The following characteristic data were determined for the 5-HT transporter: • 5-HT uptake: Km=0.084±0.011 μM • Vmax: 38.13±4.52 pmol/min/mg protein.
The results of the investigations are in each case stated as means from 2 parallel experiments.

T1 sequence (P31652 whole entry): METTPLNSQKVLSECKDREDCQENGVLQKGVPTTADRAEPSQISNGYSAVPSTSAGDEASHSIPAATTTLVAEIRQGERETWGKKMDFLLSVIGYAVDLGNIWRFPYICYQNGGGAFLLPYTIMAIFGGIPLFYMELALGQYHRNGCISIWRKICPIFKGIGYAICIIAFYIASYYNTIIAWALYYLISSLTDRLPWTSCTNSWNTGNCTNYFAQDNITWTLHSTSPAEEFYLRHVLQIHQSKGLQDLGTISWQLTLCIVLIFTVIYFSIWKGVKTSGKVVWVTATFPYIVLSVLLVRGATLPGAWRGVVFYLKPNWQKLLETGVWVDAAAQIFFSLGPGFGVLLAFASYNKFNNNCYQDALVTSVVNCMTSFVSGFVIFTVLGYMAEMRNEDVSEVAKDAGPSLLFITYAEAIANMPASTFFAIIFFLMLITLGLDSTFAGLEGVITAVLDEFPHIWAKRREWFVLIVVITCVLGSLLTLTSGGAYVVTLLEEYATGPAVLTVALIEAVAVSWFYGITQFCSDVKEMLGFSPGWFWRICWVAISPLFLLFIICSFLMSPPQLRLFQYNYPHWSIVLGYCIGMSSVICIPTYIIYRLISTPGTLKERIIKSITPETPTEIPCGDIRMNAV

SMILES | Inhibition of 5HT uptake in %
Cc1ccc(C(c2c[nH]c3ccc(Cl)cc23)N(C)C)cc1 (centres unmarked) [Example 94, [(5-Chloro-1H-indol-3-yl)-p-tolyl-methyl]-dimethyl-amine] | 64%
COc1cccc(C(c2c[nH]c3cccc([N+](=O)[O-])c23)N(C)C)c1OC (centres unmarked) [Example 75, [(2,3-Dimethoxy-phenyl)-(4-nitro-1H-indol-3-yl)-methyl]-dimethylamine] | 39%
Cc1ccccc1C(c1c[nH]c2ccc(Cl)cc12)N(C)C (centres unmarked) [Example 91, [(5-Chloro-1H-indol-3-yl)-o-tolyl-methyl]-dimethyl-amine] | 49%
CN(C)C(c1cccc(Oc2ccccc2)c1)c1cn(C)c2ccccc12 (centres unmarked) [Example 98, Dimethyl-[(1-methyl-1H-indol-3-yl)-(3-phenoxy-phenyl)-methyl]-amine] | 66%
NC(c1cccc(Oc2ccccc2)c1)c1c(-c2ccc(F)c(Cl)c2)[nH]c2ccccc12 (centres unmarked) [Example 100, [[2-(3-Chloro-4-fluoro-phenyl)-1H-indol-3-yl]-(3-phenoxy-phenyl)-methyl]-amine] | 48%
CCc1cccc2c(C(c3ccccc3C)N(C)C)c[nH]c12 (centres unmarked) [Example 89, [(7-Ethyl-1H-indol-3-yl)-o-tolyl-methyl]-dimethyl-amine] | 45%
CCc1cccc2c(C(c3ccc(OC)c(OC)c3)N(C)C)c[nH]c12 (centres unmarked) [Example 81, [(3,4-Dimethoxy-phenyl)-(7-ethyl-1H-indol-3-yl)-methyl]-dimethyl-amine] | 68%
COc1ccc(C(c2cn(C)c3ccccc23)N(C)C)cc1OC (centres unmarked) [Example 82, [(3,4-Dimethoxy-phenyl)-(1-methyl-1H-indol-3-yl)-methyl]-dimethyl-amine] | 42%
COc1ccc(C(c2c(C)[nH]c3ccccc23)N(C)C)cc1OC (centres unmarked) [Example 78, [(3,4-Dimethoxy-phenyl)-(2-methyl-1H-indol-3-yl)-methyl]-dimethyl-amine] | 73%
CN(C)C(c1ccccc1C(F)(F)F)c1c[nH]c2ccc(Cl)cc12 (centres unmarked) [Example 102, [(5-Chloro-1H-indol-3-yl)-(2-trifluoromethyl-phenyl)-methyl]-dimethyl-amine] | 42%
CCc1cccc2c(C(c3ccccc3OC)N(C)C)c[nH]c12 (centres unmarked) [Example 87, [(7-Ethyl-1H-indol-3-yl)-(2-methoxy-phenyl)-methyl]-dimethyl-amine] | 50%
Cc1ccccc1C(c1cn(C)c2ccccc12)N(C)C (centres unmarked) [Example 90, Dimethyl-[(1-methyl-1H-indol-3-yl)-o-tolyl-methyl]-amine] | 44%
COc1cccc(C(c2c(C(=O)O)[nH]c3ccc(O)cc23)N(C)C)c1OC (centres unmarked) [Example 77, 3-[(2,3-Dimethoxy-phenyl)-dimethylamino-methyl]-5-hydroxy-1H-indole-2-carboxylic Acid] | 38%
Cc1cccc(C(c2c[nH]c3ccc(Cl)cc23)N(C)C)c1 (centres unmarked) [Example 92, [(5-Chloro-1H-indol-3-yl)-m-tolyl-methyl]-dimethyl-amine] | 46%
Cc1[nH]c2ccccc2c1C(c1ccc(F)cc1Cl)N(C)C (centres unmarked) [Example 73, [(2-Chloro-4-fluoro-phenyl)-(2-methyl-1H-indol-3-yl)-methyl]-dimethyl-amine] | 41%
CN(C)C(c1cccc(Oc2ccccc2)c1)c1c(-c2ccc(F)cc2)[nH]c2ccccc12 (centres unmarked) [Example 99, [[2-(4-Fluoro-phenyl)-1H-indol-3-yl]-(3-phenoxy-phenyl)-methyl]-dimethyl-amine] | 42%
Cc1cccc2[nH]cc(C(c3cccc(Oc4ccccc4)c3)N(C)C)c12 (centres unmarked) [Example 101, Dimethyl-[(4-methyl-1H-indol-3-yl)-(3-phenoxy-phenyl)-methyl]-amine] | 41%
